In patent US20170015696A1, “SOLID STATE FORMS OF SOFOSBUVIR” (RATIOPHARM GMBH, priority 2014, published 2017):

Assay: Storage stability of the solid state form at ambient conditions
Type: physicochemical
Conditions: stored at ambient conditions (e.g., 1 atmosphere at RT)
From the text: Form A has certain advantageous properties as discussed above. Particularly, form A is stable for a period of 16 months when stored at ambient conditions (e.g., 1 atmosphere at RT).

## CC(C)OC(=O)[C@H](C)N[P@](=O)(OC[C@H]1O[C@@H](n2ccc(=O)[nH]c2=O)[C@](C)(F)[C@@H]1O)Oc1ccccc1 [form A, Sofosbuvir]
  period for which the form is stable when stored: 16 months
